Experimental findings from ChEMBL document CHEMBL1201862, “PubChem BioAssay data set” (2004) are described below.

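48-hour exposure; five concentrations; linearly interpolated endpoints. At the GI50, growth is halved.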 The source made the active and inactive calls. Cut-off read from the data, not from the text of the source: active = GI50 up to about 1.1 µM and inactive = higher.

Among the test systems are BT-549; CCRF-CEM; COLO 205; HCT-116; HL-60; Hs-578T; IGROV-1; M14; MDA-MB-435; MDA-N; MOLT-4; OVCAR-5; RXF 393; SK-MEL-28; SK-MEL-5; SNB-75; UACC-62; SF-295; SR.
Common to all, as to experiment: inhibition of tumour cell growth, NCI panel, 48 h

As for `C[C@]12CC(c3ccccc3O1)C(C(N)=O)C(=O)N2` (stereo partly specified), the GI50 in the experiment on BT-549, with CCRF-CEM, in the experiment with COLO 205, in the experiment on HCT-116, in the experiment on HL-60 and with Hs-578T was > 100 µM (inactive) in each case. Further, the GI50 in the experiment on IGROV-1, in the experiment on M14, with MDA-MB-435, with MDA-N, in the experiment on MOLT-4 and with OVCAR-5 was > 100 µM (inactive) in each case. Besides, the GI50 in the experiment with RXF 393, with SK-MEL-28, in the experiment on SK-MEL-5, in the experiment with SNB-75 and in the experiment with UACC-62 was > 100 µM (inactive) each time.
Turning to `Cn1c(-c2ccc[se]2)ccc1-c1ccc(C=O)[se]1`, the GI50 in the experiment with BT-549 is 17.1 µM (inactive); in the experiment on CCRF-CEM, 0.859 µM (active); in the experiment on COLO 205 it was 16.3 µM (inactive); in the experiment on HCT-116 it was 0.59 µM (active); in the experiment with HL-60, 9.31 µM (inactive); in the experiment on Hs-578T, 25.2 µM (inactive). For the same compound, the GI50 is 0.122 µM (active) in the experiment with IGROV-1; > 86.3 µM (inactive) in the experiment with M14; 11.4 µM (inactive) with MDA-MB-435; 6.34 µM (inactive) in the experiment on MDA-N; 7.43 µM (inactive) with MOLT-4; 0.0418 µM (active) with OVCAR-5. Besides, the GI50 was 12.4 µM (inactive) in the experiment on SF-295; 42.1 µM (inactive) with SK-MEL-28; 20.7 µM (inactive) with SK-MEL-5; 23 µM (inactive) with SNB-75; 7.45 µM (inactive) with SR; 0.205 µM (active) in the experiment with UACC-62.
Take `COc1ccc(NC2=CC(=O)C(=O)c3ccccc32)nn1`: the GI50 with BT-549 was 0.743 µM (active); with CCRF-CEM, 2.92 µM (inactive); with COLO 205 it was 1.73 µM (inactive); in the experiment on HL-60, 0.273 µM (active); in the experiment with Hs-578T it was 1.99 µM (inactive); in the experiment on IGROV-1 it was 1.69 µM (inactive). The GI50 with M14 was 0.281 µM (active); in the experiment on MDA-MB-435, 0.197 µM (active); in the experiment with MDA-N, 0.262 µM (active); with MOLT-4, 0.546 µM (active); with OVCAR-5, 1.92 µM (inactive); with RXF 393, 1.36 µM (inactive). The GI50 with SF-295 was 0.822 µM (active); in the experiment with SK-MEL-28, 1.08 µM (active); in the experiment on SK-MEL-5 it was 0.643 µM (active); in the experiment with UACC-62, 1.34 µM (inactive).
Regarding `CCOC(=O)c1c(NC(=S)Nc2ccc(C)cc2)sc2c1CCN(C)C2`, the GI50 in the experiment with BT-549 is > 100 µM (inactive); with CCRF-CEM, > 100 µM (inactive); with COLO 205, > 100 µM (inactive); in the experiment on HCT-116, > 100 µM (inactive); in the experiment with HL-60, 94.6 µM (inactive); with Hs-578T it was > 100 µM (inactive). For the same compound, the GI50 in the experiment with IGROV-1, in the experiment on M14, in the experiment with MDA-N, in the experiment with MOLT-4, with OVCAR-5 and in the experiment on RXF 393 was > 100 µM (inactive) throughout. Besides, the GI50 was > 100 µM (inactive) with SF-295, > 100 µM (inactive) in the experiment with SK-MEL-5, < 0.01 µM (active) in the experiment with SNB-75 and > 100 µM (inactive) in the experiment with UACC-62.
As to `CCOC1=C/C(=N\Nc2ccc([N+](=O)[O-])cc2)CCC1`, the GI50 in the experiment on BT-549 is 13.6 µM (inactive); in the experiment with COLO 205, 15.3 µM (inactive); in the experiment with HCT-116 it was 41.7 µM (inactive); in the experiment with HL-60, 13.6 µM (inactive); with Hs-578T, 38.5 µM (inactive); with IGROV-1 it was 15 µM (inactive). Also, the GI50 was 49.4 µM (inactive) with M14; 16.8 µM (inactive) in the experiment on MDA-MB-435; 4.83 µM (inactive) in the experiment on MOLT-4; 42.4 µM (inactive) with OVCAR-5; 21.9 µM (inactive) in the experiment on RXF 393; 13.1 µM (inactive) in the experiment on SF-295. Also, the GI50 in the experiment on SK-MEL-28 is 23.2 µM (inactive); with SK-MEL-5 it was 18.9 µM (inactive); in the experiment on SNB-75, 26.4 µM (inactive); in the experiment with SR, 4.53 µM (inactive); in the experiment on UACC-62 it was 22.5 µM (inactive).
Regarding `O=C1CSC(c2c[nH]c3ccccc23)N1c1ccc(Cl)cc1` (stereo unspecified), the GI50 with BT-549, in the experiment on COLO 205, in the experiment on HCT-116, in the experiment with HL-60, in the experiment with Hs-578T and in the experiment on IGROV-1 was > 100 µM (inactive) each time. For the same compound, the GI50 in the experiment on M14, in the experiment on MDA-MB-435, in the experiment with MDA-N, in the experiment with MOLT-4, in the experiment with OVCAR-5 and in the experiment on RXF 393 was > 100 µM (inactive) each time. In addition, the GI50 is > 100 µM (inactive) with SF-295; > 100 µM (inactive) in the experiment with SK-MEL-28; > 100 µM (inactive) in the experiment on SK-MEL-5; 37.1 µM (inactive) in the experiment on SNB-75; > 100 µM (inactive) in the experiment on UACC-62.
As to `COc1ccc(-n2c(=O)n(C)c(=O)n2-c2c(C)c(C)c(C)c(C)c2C)cc1`, the GI50 is > 100 µM (inactive) in the experiment with BT-549; 0.148 µM (active) with CCRF-CEM; > 100 µM (inactive) with COLO 205; > 100 µM (inactive) with HCT-116; > 100 µM (inactive) in the experiment on Hs-578T; > 100 µM (inactive) in the experiment with IGROV-1. Also, the GI50 in the experiment on M14, in the experiment on MDA-MB-435, in the experiment with MDA-N, with MOLT-4, in the experiment with OVCAR-5 and in the experiment with RXF 393 was > 100 µM (inactive) in each case. In addition, the GI50 in the experiment with SF-295, with SK-MEL-28, in the experiment with SK-MEL-5, in the experiment with SNB-75 and with UACC-62 was > 100 µM (inactive) throughout.
For the compound `Brc1ccc(C2(N3CCCCC3)CCCCC2)s1`, the GI50 was 30.5 µM (inactive) in the experiment on BT-549; 18.3 µM (inactive) with CCRF-CEM; > 100 µM (inactive) in the experiment on HCT-116; 19.4 µM (inactive) in the experiment on HL-60; 36.1 µM (inactive) in the experiment with Hs-578T; 22.2 µM (inactive) with IGROV-1. For the same compound, the GI50 in the experiment with M14 is 24.4 µM (inactive); with MDA-MB-435, 23.9 µM (inactive); with MDA-N it was 79.8 µM (inactive); in the experiment with MOLT-4, 16.4 µM (inactive); in the experiment with OVCAR-5, 67 µM (inactive); with RXF 393 it was 14.3 µM (inactive). The GI50 in the experiment on SF-295 was 35.6 µM (inactive); with SK-MEL-5, 0.561 µM (active); in the experiment on SR it was 19.5 µM (inactive); in the experiment on UACC-62, 35.5 µM (inactive).
Regarding `CC1(C)CC(=O)C2=C(C1)c1c(ccc3ccccc13)NC2c1cn(Cc2ccc(Cl)cc2)c2ccccc12` (stereo unspecified), the GI50 in the experiment with BT-549 was 95.9 µM (inactive); in the experiment with CCRF-CEM, 55.7 µM (inactive); in the experiment on COLO 205 it was > 100 µM (inactive); in the experiment with HCT-116, 9.35 µM (inactive); with HL-60, 37.8 µM (inactive); in the experiment with Hs-578T it was 74.1 µM (inactive). Further, the GI50 is 59.2 µM (inactive) in the experiment on IGROV-1; > 100 µM (inactive) with M14; > 100 µM (inactive) in the experiment with MDA-MB-435; > 100 µM (inactive) in the experiment with MDA-N; 58.1 µM (inactive) in the experiment on MOLT-4; 36.5 µM (inactive) with OVCAR-5. Also, the GI50 was 31.2 µM (inactive) in the experiment with SF-295; > 100 µM (inactive) with SK-MEL-5; > 100 µM (inactive) with SNB-75; 11.2 µM (inactive) in the experiment with SR; > 100 µM (inactive) in the experiment with UACC-62.
